# What was measured:
# [1] = biological target: panel of human cytochrome P450s, receptors, and ion channels (Homo sapiens, UniProt P08588); conditions: assayed at 10 μM
# [2] = biological target: panel of human cytochrome P450s, receptors, and ion channels (Homo sapiens, UniProt P20309); conditions: assayed at 10 μM
# [3] = biological target: panel of human cytochrome P450s, receptors, and ion channels (Rattus norvegicus, UniProt P15823); conditions: assayed at 10 μM
# [4] = biological target: CYP450 2C9 (Homo sapiens, UniProt P11712); assay: Cytochrome P450 inhibition, CYP2C9 (Eurofins Panlabs panel); type: in vitro ADME; conditions: assayed at 10 μM
# Chain of CYP450 2C9 (P11712 whole entry): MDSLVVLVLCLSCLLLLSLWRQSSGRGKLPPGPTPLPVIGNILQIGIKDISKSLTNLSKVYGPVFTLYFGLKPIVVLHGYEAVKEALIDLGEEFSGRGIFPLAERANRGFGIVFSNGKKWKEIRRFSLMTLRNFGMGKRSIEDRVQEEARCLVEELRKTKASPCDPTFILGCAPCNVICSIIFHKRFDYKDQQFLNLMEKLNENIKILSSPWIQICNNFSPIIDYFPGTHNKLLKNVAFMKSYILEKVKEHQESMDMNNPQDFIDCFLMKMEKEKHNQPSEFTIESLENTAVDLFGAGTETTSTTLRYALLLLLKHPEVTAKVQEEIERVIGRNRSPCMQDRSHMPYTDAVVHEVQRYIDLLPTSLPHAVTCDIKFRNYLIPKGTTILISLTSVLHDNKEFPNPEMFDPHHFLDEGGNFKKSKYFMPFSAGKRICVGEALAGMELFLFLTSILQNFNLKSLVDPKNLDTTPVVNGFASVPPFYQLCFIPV
# Method: (§1) Cytochrome P450 Inhibition.
# (§2) Assessment of off-target effects of priority compounds. To assess potential off-target effects, we will evaluate prioritized hits validated by in vivo testing in the Eurofins Panlabs HitProfilingScreen+CYP450 assay panel, which is performed by Eurofins as a fee for service. The assay panel of consists of assays for 30 receptors and transporters plus the five major CYP450 enzymes (1A2, 2C19, 2C9, 2D6, 3A4).
# [5] = tested on: panel of human cytochrome P450s (1A2, 2C19, 2C9, 2D6, 3A4), receptors, transporters and ion channels; assay: in vitro
# [6] = tested on: P. aeruginosa T3SS-mediated secretion (exoT-luxCDABE reporter strain MDM852); assay: Luciferase (exoT-lux) transcriptional reporter assay of T3SS-mediated secretion; type: cell-based, Pseudomonas aeruginosa; conditions: read-out: LUX Sec IC50; Table 1
# Description: Luciferase Transcriptional Reporter Assay of T3SS-Mediated Secretion with a Luminescent Signal.
# A transcriptional fusion of the Photorhabdus luminescens lux operon (luxCDABE) to P. aeruginosa PAO1 T3SS effector gene exoT (PA0044) was constructed and used to build strain MDM852 as described previously (Aiello et al., 2010, Antimicrob Agents Chemother, 54:1988-1999). Induction of T3SS operons by Ca^++ depletion due to EGTA addition results in secretion of the T3SS negative regulator ExsE and the production of high levels of T3SS components including the luxCDABE gene products, which results in luminescence that is easily detected by a microplate reader. Inhibition of T3SS-mediated secretion of the negative regulator ExsE by a small molecule inhibitor causes reduced production of luxCDABE gene products and reduced luminescence. For inhibitor IC50 testing, compounds were added to a 96-well microplate in a concentration dilution series. Reporter strain MDM852 was grown at 37° C. in LBG to OD600 ~0.025-0.05, transferred into the microplate (50 uL/well) containing test compounds and EGTA (5 uL of 0.1 M stock solution), which was covered with a translucent gas-permeable seal (Abgene, Inc., Cat. No. AB-0718). […] Plates were incubated at room temperature for 300 min. Then, luminescence was measured in an Envision Multilabel microplate reader (PerkinElmer). The screening window coefficient, Z′-factor (see Zhang, et al., 1999, J. Biomol. Screen., 4:67-73), defined as the ratio of the positive and negative control separation band to the signal dynamic range of the assay, averaged 0.7 for the assay.
# [7] = tested on: P. aeruginosa T3SS-mediated secretion of ExoS-β-lactamase fusion protein; assay: Effector-β-lactamase (ExoS-βLA) reporter assay of T3SS-mediated secretion; type: cell-based, Pseudomonas aeruginosa; conditions: read-out: ExoS-BLA IC50; Table 1
# Description: Effector-β-Lactamase (βLA) Reporter Assay of T3SS-Mediated Secretion with an Absorbency Signal.
# A gene encoding the exoS promoter/regulatory region and an ExoS-β-lactamase (βLA) fusion protein (comprised of the full length P. aeruginosa T3SS effector ExoS fused in reading frame to the TEM-1 β-lactamase gene lacking secretion signal codons) was constructed by splicing by overlap extension PCR (SOE-PCR) (Choi and Schweizer, 2005, BMC Microbiol., 5:30), sequence confirmed, cloned into miniCTX and introduced into P. aeruginosa strain PAO1 to generate strains MDM1746 and MDM1838 as previously described for strain MDM1710 (Bowlin et al., 2014, Antimicrob Agents Chemother., 58:2211-2220). Secretion of ExoS-β-lactamase fusion protein following EGTA addition to induce the T3SS operons was detected by measuring the hydrolysis of the chromogenic β-lactamase substrate nitrocefin in clear 96-well microplates in a modification of a previously described assay (Lee, et al., 2007, Infect. Immun., 75:1089-98). Cells of strain MDM1746, or negative control MDM1838 (which fails to carry out T3SS secretion due to ΔpscF), were sub-cultured in the morning from overnight growths in LBG into 0.1 ml of LBGE with or without test compounds and grown for 150 min. Nitrocefin (100 μg/mL final) was added, and A490 measurements taken every minute for 15 min in a Victor^3V 1420 Multilabel HTS Counter (PerkinElmer). Slopes were calculated as a relative measure of the quantity of the effector-βLA fusion protein secreted and were absolutely dependent on induction with EGTA, and the presence of a functional pscF gene in the P. aeruginosa cells. Typical signal: background ratios were 6-10.
# [8] = tested on: T3SS-mediated translocation of ExoU by P. aeruginosa strain MDM1561 (PA99U) into CHO cells; assay: P. aeruginosa ExoU-dependent CHO cell killing assay for T3SS-mediated translocation; type: cell-based, Pseudomonas aeruginosa; conditions: read-out: Translocation EC50; Table 1
# Description: P. aeruginosa ExoU-Dependent CHO Cell Killing.
# [9] = biological target: CYP450 2C19 (Homo sapiens, UniProt P33261); assay: Cytochrome P450 inhibition, CYP2C19 (Eurofins Panlabs panel); type: in vitro ADME; conditions: assayed at 10 μM
# Chain of CYP450 2C19 (P33261 whole entry): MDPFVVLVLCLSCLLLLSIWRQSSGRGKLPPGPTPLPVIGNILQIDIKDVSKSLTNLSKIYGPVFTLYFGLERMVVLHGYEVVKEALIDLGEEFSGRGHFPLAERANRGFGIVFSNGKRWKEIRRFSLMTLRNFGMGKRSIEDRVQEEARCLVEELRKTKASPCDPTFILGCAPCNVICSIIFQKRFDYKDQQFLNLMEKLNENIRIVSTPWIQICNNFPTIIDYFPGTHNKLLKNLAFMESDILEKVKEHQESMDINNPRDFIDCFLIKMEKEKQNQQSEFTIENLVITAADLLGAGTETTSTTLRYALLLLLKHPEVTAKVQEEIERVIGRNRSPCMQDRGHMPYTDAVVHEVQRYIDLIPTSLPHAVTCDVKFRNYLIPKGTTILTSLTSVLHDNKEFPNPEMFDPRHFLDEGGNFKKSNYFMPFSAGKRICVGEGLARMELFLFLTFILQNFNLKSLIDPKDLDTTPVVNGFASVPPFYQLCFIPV
# Method: as §1, §2
# [10] = Mammalian cytotoxicity (CC50), MTS conversion; type: cell-based, human; conditions: human, HeLa cells, Table 1; HeLa; read-out: Cytotox-HeLa CC50
# Method: Determination of Mammalian Cytotoxicity.
# Following incubation for 3 days at 37° C. in VP-SFM, cell viability was measured with the vital tetrazolium salt stain 3-(4,5-dimethylthiazol-2-yl)-2,5 diphenyltetrazolium bromide according to the manufacturer's instructions (Promega, Madison, Wisconsin). Values were determined in triplicate using dilutions of inhibitory compound from 100 μM to 0.2 μM.
# [11] = biological target: hERG (Homo sapiens, UniProt Q12809); assay: hERG inhibition
# Chain of hERG (Q12809 whole entry): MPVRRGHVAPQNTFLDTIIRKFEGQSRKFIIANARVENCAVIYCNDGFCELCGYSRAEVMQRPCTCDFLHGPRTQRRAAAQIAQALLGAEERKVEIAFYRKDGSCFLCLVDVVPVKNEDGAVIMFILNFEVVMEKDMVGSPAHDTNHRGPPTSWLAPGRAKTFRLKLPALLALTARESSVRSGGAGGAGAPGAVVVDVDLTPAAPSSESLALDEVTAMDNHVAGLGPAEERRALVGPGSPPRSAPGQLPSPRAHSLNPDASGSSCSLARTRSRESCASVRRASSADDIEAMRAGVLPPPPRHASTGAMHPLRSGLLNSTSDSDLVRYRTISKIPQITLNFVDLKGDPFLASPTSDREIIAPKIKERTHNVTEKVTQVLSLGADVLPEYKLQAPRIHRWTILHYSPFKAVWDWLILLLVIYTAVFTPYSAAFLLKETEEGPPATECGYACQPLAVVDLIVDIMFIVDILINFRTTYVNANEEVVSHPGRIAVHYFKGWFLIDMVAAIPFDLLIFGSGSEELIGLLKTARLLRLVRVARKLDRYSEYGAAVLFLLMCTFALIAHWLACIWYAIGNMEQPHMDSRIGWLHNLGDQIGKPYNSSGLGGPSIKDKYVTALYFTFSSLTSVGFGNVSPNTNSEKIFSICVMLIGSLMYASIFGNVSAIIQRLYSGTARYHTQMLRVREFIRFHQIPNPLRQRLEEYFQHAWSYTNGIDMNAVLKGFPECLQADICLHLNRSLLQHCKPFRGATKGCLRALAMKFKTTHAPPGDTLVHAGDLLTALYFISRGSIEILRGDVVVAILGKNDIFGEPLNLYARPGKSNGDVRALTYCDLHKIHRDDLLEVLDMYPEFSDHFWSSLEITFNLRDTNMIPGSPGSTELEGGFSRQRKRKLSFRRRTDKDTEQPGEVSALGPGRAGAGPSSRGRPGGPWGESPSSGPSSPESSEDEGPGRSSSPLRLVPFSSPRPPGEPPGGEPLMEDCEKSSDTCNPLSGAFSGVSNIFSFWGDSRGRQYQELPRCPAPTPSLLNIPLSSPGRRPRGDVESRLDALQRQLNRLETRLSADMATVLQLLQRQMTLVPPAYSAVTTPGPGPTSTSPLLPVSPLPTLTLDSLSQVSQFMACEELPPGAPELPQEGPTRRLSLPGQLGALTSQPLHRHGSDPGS
# [12] = biological target: CYP450 1A2 (Homo sapiens, UniProt P05177); assay: Cytochrome P450 inhibition, CYP1A2 (Eurofins Panlabs panel); type: in vitro ADME; conditions: assayed at 10 μM
# Chain of CYP450 1A2 (P05177 whole entry): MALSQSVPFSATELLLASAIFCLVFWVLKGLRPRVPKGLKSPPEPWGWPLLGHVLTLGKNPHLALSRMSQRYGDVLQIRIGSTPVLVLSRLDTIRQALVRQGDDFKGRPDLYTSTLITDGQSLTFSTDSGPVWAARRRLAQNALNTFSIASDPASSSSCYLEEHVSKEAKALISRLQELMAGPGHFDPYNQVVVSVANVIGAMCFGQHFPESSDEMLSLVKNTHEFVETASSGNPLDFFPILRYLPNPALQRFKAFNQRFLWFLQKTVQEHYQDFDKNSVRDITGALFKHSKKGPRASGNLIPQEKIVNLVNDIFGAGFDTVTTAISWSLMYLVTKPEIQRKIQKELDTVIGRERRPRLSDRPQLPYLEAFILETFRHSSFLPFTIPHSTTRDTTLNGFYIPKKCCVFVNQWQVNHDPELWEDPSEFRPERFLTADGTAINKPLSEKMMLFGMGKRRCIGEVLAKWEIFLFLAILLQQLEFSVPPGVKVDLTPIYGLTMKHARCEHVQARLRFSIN
# Method: as §1, §2
# [13] = Kinetic aqueous solubility (nephelometric assay); type: physicochemical; conditions: Table 1
# Description: Solubility. The maximum aqueous solubility of analogs will be initially determined by nephelometry using a published method (44).
# [14] = biological target: CYP450 3A4 (Homo sapiens, UniProt P08684); assay: Cytochrome P450 inhibition, CYP3A4 (Eurofins Panlabs panel); type: in vitro ADME; conditions: assayed at 10 μM
# Chain of CYP450 3A4 (P08684 whole entry): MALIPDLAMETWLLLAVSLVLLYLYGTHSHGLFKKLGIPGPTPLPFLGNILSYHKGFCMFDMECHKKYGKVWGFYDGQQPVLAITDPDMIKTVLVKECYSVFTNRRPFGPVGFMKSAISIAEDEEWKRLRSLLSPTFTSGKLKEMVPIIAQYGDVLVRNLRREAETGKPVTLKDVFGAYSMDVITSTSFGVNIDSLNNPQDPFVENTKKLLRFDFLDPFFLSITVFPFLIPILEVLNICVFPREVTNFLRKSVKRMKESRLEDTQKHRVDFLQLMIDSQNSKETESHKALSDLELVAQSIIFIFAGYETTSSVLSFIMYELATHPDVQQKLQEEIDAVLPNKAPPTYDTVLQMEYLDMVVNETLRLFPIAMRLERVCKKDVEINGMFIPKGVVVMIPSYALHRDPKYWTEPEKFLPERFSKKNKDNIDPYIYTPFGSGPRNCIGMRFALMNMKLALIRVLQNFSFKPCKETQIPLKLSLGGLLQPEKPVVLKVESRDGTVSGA
# Method: as §1, §2
# Chain of panel of human cytochrome P450s, receptors, and ion channels (Homo sapiens, UniProt P08588) (P08588 whole entry): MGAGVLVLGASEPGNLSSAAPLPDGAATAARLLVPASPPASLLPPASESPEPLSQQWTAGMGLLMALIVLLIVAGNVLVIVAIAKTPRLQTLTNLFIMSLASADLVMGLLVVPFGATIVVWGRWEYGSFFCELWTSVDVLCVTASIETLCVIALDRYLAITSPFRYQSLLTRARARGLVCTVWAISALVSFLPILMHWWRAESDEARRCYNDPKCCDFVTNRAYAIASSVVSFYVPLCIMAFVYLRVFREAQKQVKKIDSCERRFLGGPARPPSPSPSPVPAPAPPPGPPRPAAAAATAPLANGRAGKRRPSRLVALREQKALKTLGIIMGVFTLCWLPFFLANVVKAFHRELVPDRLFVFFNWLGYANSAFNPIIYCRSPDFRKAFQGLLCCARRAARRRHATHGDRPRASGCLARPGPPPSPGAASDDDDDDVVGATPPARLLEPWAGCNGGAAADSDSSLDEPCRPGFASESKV
# Chain of panel of human cytochrome P450s, receptors, and ion channels (Homo sapiens, UniProt P20309) (P20309 whole entry): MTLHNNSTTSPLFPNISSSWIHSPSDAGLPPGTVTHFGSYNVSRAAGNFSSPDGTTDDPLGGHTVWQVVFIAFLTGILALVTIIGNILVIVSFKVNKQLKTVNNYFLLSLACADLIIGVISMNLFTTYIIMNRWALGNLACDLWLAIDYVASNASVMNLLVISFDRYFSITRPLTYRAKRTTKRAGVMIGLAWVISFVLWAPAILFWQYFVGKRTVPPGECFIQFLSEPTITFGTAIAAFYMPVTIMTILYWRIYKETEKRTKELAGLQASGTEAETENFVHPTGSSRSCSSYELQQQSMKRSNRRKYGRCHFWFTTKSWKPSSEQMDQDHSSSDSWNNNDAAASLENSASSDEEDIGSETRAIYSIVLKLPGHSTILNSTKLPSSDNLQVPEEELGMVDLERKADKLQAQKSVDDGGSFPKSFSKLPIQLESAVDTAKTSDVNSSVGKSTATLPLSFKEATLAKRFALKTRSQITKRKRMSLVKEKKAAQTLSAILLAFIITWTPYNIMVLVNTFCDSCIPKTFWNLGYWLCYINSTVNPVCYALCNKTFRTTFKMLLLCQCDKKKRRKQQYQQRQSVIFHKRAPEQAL
# Chain of panel of human cytochrome P450s, receptors, and ion channels (Rattus norvegicus, UniProt P15823) (P15823 whole entry): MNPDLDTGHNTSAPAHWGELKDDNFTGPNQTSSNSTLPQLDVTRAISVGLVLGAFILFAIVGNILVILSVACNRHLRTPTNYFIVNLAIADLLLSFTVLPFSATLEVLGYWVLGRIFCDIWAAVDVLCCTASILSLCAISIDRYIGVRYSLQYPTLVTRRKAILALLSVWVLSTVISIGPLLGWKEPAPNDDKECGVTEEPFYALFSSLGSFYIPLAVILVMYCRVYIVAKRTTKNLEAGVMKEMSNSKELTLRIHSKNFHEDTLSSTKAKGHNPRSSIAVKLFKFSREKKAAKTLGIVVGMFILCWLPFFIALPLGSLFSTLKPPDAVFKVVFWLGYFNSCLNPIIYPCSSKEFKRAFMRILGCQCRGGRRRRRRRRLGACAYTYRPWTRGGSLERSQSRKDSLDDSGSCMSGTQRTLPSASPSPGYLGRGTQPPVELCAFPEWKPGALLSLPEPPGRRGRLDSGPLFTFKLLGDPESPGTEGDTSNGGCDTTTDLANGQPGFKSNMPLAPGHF
smiles,measurement,setting,value
CCC(Oc1ccc(Cl)c(Cl)c1Cl)C(=O)NCc1ccc(F)cc1 (stereo not drawn) [MBX-4532],Adrenergic β1,[1],2
same,Muscarinic M3,[2],8
same,Adrenergic α1B,[3],6
same,"CYP450, 2C9",[4],−30
same,inhibition at 10 µM,[5],> 50%
same,IC50,[6],1630 nM
same,IC50,[7],1000 nM
same,EC50,[8],1700 nM
same,"CYP450, 2C19",[9],80
same,CC50 at 3 days,[10],> 200000 nM
same,IC50,"[11]; Table 1, read-out: hERG INH IC50",> 100000 nM
same,Potassium Channel hERG,[11]; assayed at 10 μM,26
same,"CYP450, 1A2",[12],24
same,Sol,[13],25 µM
same,"CYP450, 3A4",[14],13
